Read-outs that look alike come from different tables or passages of the source.
Target: P97 (Homo sapiens (Human), UniProt P55072)
Experiment: P97 Biomolgreen ATPase assay, 200 μM ATP
Format: biochemical
[1] = read-out: P97 Biomolgreen, IC50

Chain of P97 (P55072 whole entry): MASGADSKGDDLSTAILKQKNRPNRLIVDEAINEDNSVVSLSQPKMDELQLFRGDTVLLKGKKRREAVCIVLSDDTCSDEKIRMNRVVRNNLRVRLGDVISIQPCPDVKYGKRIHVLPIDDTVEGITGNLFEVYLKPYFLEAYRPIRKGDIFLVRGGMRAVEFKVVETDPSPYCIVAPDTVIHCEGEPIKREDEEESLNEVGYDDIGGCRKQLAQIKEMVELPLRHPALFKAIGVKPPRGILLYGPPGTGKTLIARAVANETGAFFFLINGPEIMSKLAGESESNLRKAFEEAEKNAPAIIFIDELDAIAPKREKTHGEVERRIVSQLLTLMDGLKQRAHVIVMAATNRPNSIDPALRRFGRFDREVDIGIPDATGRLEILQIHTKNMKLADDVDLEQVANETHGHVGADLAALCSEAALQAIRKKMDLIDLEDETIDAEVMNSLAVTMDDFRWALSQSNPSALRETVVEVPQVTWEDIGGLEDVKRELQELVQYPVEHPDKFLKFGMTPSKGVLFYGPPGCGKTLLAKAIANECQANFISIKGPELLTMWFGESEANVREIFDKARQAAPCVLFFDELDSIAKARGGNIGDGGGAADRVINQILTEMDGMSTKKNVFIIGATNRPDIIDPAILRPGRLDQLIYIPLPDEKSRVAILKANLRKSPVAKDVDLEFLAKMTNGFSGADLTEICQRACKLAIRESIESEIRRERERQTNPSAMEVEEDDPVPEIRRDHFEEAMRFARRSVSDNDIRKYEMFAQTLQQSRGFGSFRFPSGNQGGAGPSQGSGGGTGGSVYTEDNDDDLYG

Compound | IC50 [1] [µM] | other results
Cc1cc(OCc2nnc(SC3C=CCCC3)n2-c2cccnc2)ccc1C#CCOC(=O)NCCN1CCN(C)CC1 (stereo not shown) [Compound 59] | 0.025 | 
[2H]C1([2H])C([2H])([2H])C([2H])([2H])C([2H])(Sc2nnc(COc3ccc(C#CCOC(=O)NC)c(C)c3)n2-c2cccnc2)C1([2H])[2H] [Compound 24] |  | IC50 (P97 Biomolgreen, IC50 (μM)): 0.026 µM
Cc1cc(OCc2nnc(SC3C=CCCC3)n2-c2cccnc2)ccc1C#CC1(O)COC1 (stereo not shown) [Compound 34] | 0.098 | 
Cc1cc(OCc2nnc(SC3CCCC=C3F)n2-c2cccnc2)ccc1C#CCO (stereo not shown) [Compound 74] | 0.51 | 
Cc1cc(OCc2nnc(SC3CCCC=C3F)n2-c2cccnc2)ccc1C#CCOC(=O)NCCN1CCN(C)CC1 (stereo not shown) [Compound 80] | 0.23 | 
CN1CCC(NC(=O)OCC#Cc2c(F)cc(OCc3nnc(SC4C=CCCC4)n3-c3cccnc3)cc2F)CC1 (stereo not shown) [Compound 120] | 0.012 | 
CCC(=O)NCC#Cc1ccc(OCc2nnc(SCC3CO3)n2-c2cccnc2)cc1C (stereo not shown) [Compound 129] |  | P97 Biomolgreen; 200 μM ATP; IC50 (μM): not active
CN1CCN(CCNC(=O)OCC#Cc2ccc(OCc3nnc(SC4C=CCCC4)n3-c3cccnc3)cc2F)CC1 (stereo not shown) [Compound 77] | 0.02 | 
Cc1cc(C(=O)NCC#Cc2ccc(OCc3nnc(SC4C=CCCC4)n3-c3cccnc3)cc2C)no1 (stereo not shown) [Compound 104] | 0.05 | 
Cc1cc(OCc2nnc(SC3C=CCCC3)n2-c2cccnc2)ccc1C#CCNCc1ccc(F)cc1 (stereo not shown) [Compound 39] | 0.11 | 
CCC(=O)NCC#Cc1ccc(OCc2nnc(SCC(=O)CCl)n2-c2cccnc2)cc1C [Compound 132] | 2.77 | 
Cc1cc(OCc2nnc(SC3C=CCCC3)n2-c2cccnc2)ccc1C#CCOC(=O)N1CCN(C)CC1 (stereo not shown) [Compound 76] | 0.03 | 
CN1CCN(CCNC(=O)OCC#Cc2ccc(OCc3nnc(SC4C=CCCC4)n3-c3cccnc3)cc2F)CC1 (stereo not shown) [Compound 107] | 0.013 | 
Cc1cc(OCc2nnc(SC3CCCC3)n2-c2cccnc2)ccc1C#CCO [Compound 58] | 0.093 | 
Cc1ccc(S(=O)(=O)NCC#Cc2ccc(OCc3nnc(SC4C=CCCC4)n3-c3cccnc3)cc2C)cc1 (stereo not shown) [Compound 7] | 0.13 | 
Cc1cc(OCc2nnc(SC3C=CCCC3)n2-c2cccnc2)ccc1C#CCOC(=O)NCCN1CCN(C(C)C)CC1 (stereo not shown) [Compound 90] | 0.084 | 
[2H]C1([2H])C([2H])([2H])C([2H])([2H])C([2H])(Sc2nnc(COc3ccc(C#CCOC(=O)NCCN4CCN(C(C)C)CC4)c(C)c3)n2-c2cccnc2)C1([2H])[2H] [Compound 21] |  | IC50 (P97 Biomolgreen, IC50 (μM)): 0.034 µM
Cc1cc(OCc2nnc(SC3CCCC3)n2-c2cccnc2)ccc1C#CCN1C(=O)c2ccccc2C1=O [Compound 50] | 0.28 | 
[2H]C1([2H])C([2H])([2H])C([2H])([2H])C([2H])(Sc2nnc(COc3ccc(C#CCOC(=O)NCCN4CCN(C(C)C)CC4)c(C)c3)n2-c2cccnc2)C1([2H])[2H] [Compound 100] |  | IC50 (P97 Biomolgreen, IC50 (μM)): 0.025 µM
N#Cc1cc(OCc2nnc(SC3C=CCCC3)n2-c2cccnc2)ccc1C#CCO (stereo not shown) [Compound 115] | 0.1 | 
[2H]C1([2H])C([2H])([2H])C([2H])([2H])C([2H])(Sc2nnc(COc3ccc(C#CCOC(=O)NCCN4CCCN(C(C)C)CC4)c(C)c3)n2-c2cccnc2)C1([2H])[2H] [Compound 32] |  | IC50 (P97 Biomolgreen, IC50 (μM)): 0.023 µM
Cc1cc(OCc2nnc(SC3C=CCCC3)n2-c2cncc(Cl)c2)ccc1C#CCO (stereo not shown) [Compound 84] | 2.11 | 
Cc1cc(OCc2nnc(SC3CCCC3)n2-c2cccnc2)ccc1C#CCOC(=O)NCCOCCNC(=O)CC1[C@H]2C[C@@H]3C[C@@H](C[C@H]1C3)C2 (stereo partly shown) [Compound 111] | 0.03 | 

Compound | IC50 [1] [µM] | other results
Cc1cc(OCc2nnc(SC3CCCC3)n2-c2cccnc2)ccc1C#CCOC(=O)NC(C)C [Compound 22] | 0.027 | 
[2H]C1([2H])C([2H])([2H])C([2H])([2H])C([2H])(Sc2nnc(COc3ccc(C#CCO)c(F)c3)n2-c2cccnc2)C1([2H])[2H] [Compound 105] |  | IC50 (P97 Biomolgreen, IC50 (μM)): 0.03 µM
[2H]C1([2H])C([2H])([2H])C([2H])([2H])C([2H])(Sc2nnc(COc3ccc(C#CCNCC4(N5CCN(C(C)C)CC5)CCC4)c(C)c3)n2-c2cccnc2)C1([2H])[2H] [Compound 67] |  | IC50 (P97 Biomolgreen, IC50 (μM)): 0.2 µM
OCC#Cc1cc(F)c(OCc2nnc(SC3C=CCCC3)n2-c2cccnc2)cc1F (stereo not shown) [Compound 114] | 0.02 | 
Cc1cc(OCc2nnc(SC3C=CCCC3)n2-c2cccnc2)ccc1C#CCNC(=O)OC(C)(C)C (stereo not shown) [Compound 40] | 0.14 | 
Cc1cc(OCc2nnc(CC3CCCC3)n2-c2cccnc2)ccc1C#CCOC(=O)NCCC(=O)N1CCN(C)CC1 [Compound 70] | 0.098 | 
[2H]C1([2H])C([2H])([2H])C([2H])([2H])C([2H])(Sc2nnc(COc3ccc(C#CCOC(=O)NCC(F)(F)F)c(C)c3)n2-c2cccnc2)C1([2H])[2H] [Compound 20] |  | IC50 (P97 Biomolgreen, IC50 (μM)): 0.034 µM
C/C=C/C(=O)NCC#Cc1ccc(OCc2nnc(SC3C=CCCC3)n2-c2cccnc2)cc1C (stereo not shown) [Compound 87] | 0.058 | 
Cc1cc(OCc2nnc(SC3C=CCCC3)n2-c2cncc(Cl)c2)ccc1C#CCOC(=O)NCCN1CCN(C)CC1 (stereo not shown) [Compound 85] | 0.934 | 
Cc1cc(OCc2nnc(SC3C=CCCC3)n2-c2cccnc2)ccc1C#CCNS(=O)(=O)N1CCOCC1 (stereo not shown) [Compound 63] | 0.048 | 
Cc1cc(OCc2nnc(OC3CCCC3)n2-c2cccnc2)ccc1C#CCO [Compound 99] | 0.183 | 
[2H]C1([2H])C([2H])([2H])C([2H])([2H])C([2H])(Sc2nnc(COc3cc(F)c(C#CCOC(=O)NC4CCN(C)CC4)cc3F)n2-c2cccnc2)C1([2H])[2H] [Compound 124] |  | IC50 (P97 Biomolgreen, IC50 (μM)): 0.01 µM
CN1CCC(NC(=O)OCC#Cc2ccc(OCc3nnc(SC4C=CCCC4)n3-c3cccnc3)c(F)c2F)CC1 (stereo not shown) [Compound 118] | 0.017 | 
Cc1cc(OCc2nnc(SC3C=CCCC3)n2-c2cccnc2)ccc1C#CCNC(C)C (stereo not shown) [Compound 16] | 0.055 | 
Cc1cc(OCc2nnc(SC3C=CCCC3)n2-c2cccnc2)ccc1C#CCNC(=O)CCl (stereo not shown) [Compound 95] | 0.03 | 
Cc1cc(OCc2nnc(SC3C=CCCC3)n2-c2cccnc2)ccc1C#CC(OC(=O)NCCN1CCN(C(C)C)CC1)C(F)(F)F (stereo not shown) [Compound 62] | 0.11 | 
[2H]C1([2H])C([2H])([2H])C([2H])([2H])C([2H])(Sc2nnc(COc3ccc(C#CCOC(=O)NC)c(F)c3)n2-c2cccnc2)C1([2H])[2H] [Compound 106] |  | IC50 (P97 Biomolgreen, IC50 (μM)): 0.02 µM
[2H]C1([2H])C([2H])([2H])C([2H])([2H])C([2H])(Sc2nnc(COc3ccc(C#CCOC(=O)NC(C)C)c(C)c3)n2-c2cccnc2)C1([2H])[2H] [Compound 23] |  | IC50 (P97 Biomolgreen, IC50 (μM)): 0.032 µM
Cc1cc(OCc2nnc(SC3C=CCCC3)n2-c2cccnc2)ccc1C#CCNS(=O)(=O)c1ccc(F)cc1 (stereo not shown) [Compound 15] | 0.074 | 
Cc1cc(OCc2nnc(SC3C=CCCC3)n2-c2cccnc2)ccc1C#CCNS(=O)(=O)N1CCN(C)CC1 (stereo not shown) [Compound 65] | 0.047 | 
CCC(=O)NCC#Cc1ccc(OCc2nnc(SC[C@@]3(C)CO3)n2-c2cccnc2)cc1C [Compound 130] |  | P97 Biomolgreen; 200 μM ATP; IC50 (μM): not active
Cc1cc(OCc2nnc(SCC3CC3)n2-c2cccnc2)ccc1C#CCO [Compound 128] | 0.13 | 
Cc1cc(OCc2nnc(S(=O)(=O)C3C=CCCC3)n2-c2cccnc2)ccc1C#CCO (stereo not shown) [Compound 98] | 4.82 | 

Compound | IC50 [1] [µM] | other results
[2H]C1([2H])C([2H])([2H])C([2H])([2H])C([2H])(Sc2nnc(COc3ccc(C#CC(O)c4ccccc4)c(C)c3)n2-c2cccnc2)C1([2H])[2H] (stereo not shown) [Compound 52] |  | IC50 (P97 Biomolgreen, IC50 (μM)): 0.55 µM
Cc1cc(OCc2nnc(SC3C=CCCC3)n2-c2cccnc2)ccc1C#CCNS(=O)(=O)C1CC1 (stereo not shown) [Compound 18] | 0.035 | 
Cc1cc(OCc2nnc(SC3C=CCCC3)n2-c2cccnc2)ccc1C#CCO (stereo not shown) [Compound 79] | 0.037 | 
C#Cc1ccc(OCc2nnc(CC3CCCC3)n2-c2cccnc2)cc1C [Compound 51] | 0.44 | 
Cc1cc(OCc2nnc(SC3CCCC3)n2-c2cccnc2)ccc1C#CCO [Compound 89] | 0.028 | 
OCC#Cc1ccc(OCc2nnc(SC3C=CCCC3)n2-c2cccnc2)c(F)c1F (stereo not shown) [Compound 113] | 0.04 | 
C=C(C)C(=O)NCC#Cc1ccc(OCc2nnc(SC3C=CCCC3)n2-c2cccnc2)cc1C (stereo not shown) [Compound 86] | 0.06 | 
CC(=O)NCC#Cc1ccc(OCc2nnc(SC3C=CCCC3)n2-c2cccnc2)cc1C (stereo not shown) [Compound 83] | 0.046 | 
Cc1cc(OCc2nnc(SC3CC3)n2-c2cccnc2)ccc1C#CCNC(=O)OC(C)(C)C [Compound 54] | 2 | 
Cc1cc(OCc2nnc(SC3C=CCCC3)n2-c2cccnc2)ccc1C#CCOC(=O)NCCC(=O)N1CCN(C)CC1 (stereo not shown) [Compound 61] | 0.029 | 
[2H]C1([2H])C([2H])([2H])C([2H])([2H])C([2H])(Sc2nnc(COc3ccc(C#CC(C)N4CCOCC4)c(C)c3)n2-c2cccnc2)C1([2H])[2H] (stereo not shown) [Compound 3] |  | IC50 (P97 Biomolgreen, IC50 (μM)): 0.17 µM
COc1cc(C#CCO)c(F)cc1OCc1nnc(SC2C=CCCC2)n1-c1cccnc1 (stereo not shown) [Compound 116] | 0.04 | 
Cc1cc(OCc2nnc(SC3CCCC3)n2-c2cccnc2)ccc1C#CCNC(=O)OC(C)(C)C [Compound 43] | 0.048 | 
Cc1cc(OCc2nnc(SC3C=CCCC3)n2-c2cccnc2)ccc1C#CCNCCN(C)C (stereo not shown) [Compound 88] | 0.06 | 
[2H]C1([2H])C([2H])([2H])C([2H])([2H])C([2H])(Sc2nnc(COc3ccc(C#CCNC4CCN(C(C)C)CC4)c(C)c3)n2-c2cccnc2)C1([2H])[2H] [Compound 38] |  | IC50 (P97 Biomolgreen, IC50 (μM)): 0.095 µM
Cc1cc(OCc2nnc(SC3C=CCCC3)n2-c2cccnc2)ccc1C#CCNC(=O)NCC#Cc1ccc(OCc2nnc(SC3C=CCCC3)n2-c2cccnc2)cc1C (stereo not shown) [Compound 134] | 0.25 | 
Cc1cc(OCc2nnc(SC3C=CCCC3)n2-c2cccnc2)ccc1C#CCNC(=O)NCCN1CCN(C(C)C)CC1 (stereo not shown) [Compound 73] | 0.052 | 
Cc1cc(OCc2nnc(SC3CCCC3)n2-c2cccnc2)ccc1C#CCCc1ccccc1 [Compound 9] | 0.1 | 
[2H]C1([2H])C([2H])([2H])C([2H])([2H])C([2H])(Sc2nnc(COc3ccc(C#CCOC)c(C)c3)n2-c2cccnc2)C1([2H])[2H] [Compound 36] |  | IC50 (P97 Biomolgreen, IC50 (μM)): 0.069 µM
Cc1cc(OCc2nnc(SC3C=CCCC3)n2-c2cccnc2)ccc1C#CC(C)(C)O (stereo not shown) [Compound 28] | 0.096 | 
C=CC(=O)NCC#Cc1ccc(OCc2nnc(SC3C=CCCC3)n2-c2cccnc2)cc1C (stereo not shown) [Compound 92] | 0.026 | 

Reference: patent publication US10894782B2, “Modulators of P97 AAA ATPase activity” (University of Pittsburgh—Of the Commonwealth System of …, priority 2016, dated 2021)
